Data as given in ChEMBL document CHEMBL3886673, “Tetracyclic CDK9 kinase inhibitors” (2016).
pIC50: −log10 of the molar value.

Biological target: Cyclin-dependent kinase 9 (Homo sapiens, UniProt P50750)
Experiment: LANCE ULight TR-FRET Kinase Assay : CDK9 enzyme activities were measured using LANCE ULight TR-FRET kinase assay reagents (PerkinElmer, Waltham, Mass.). Compounds were diluted in 100% DMSO then diluted with 1:10 in serine/threonine kinase assay buffer containing 20 mM HEPES, 10 mM MgCl2, 100 mM Na3VO4, and 0.0075% Triton X-100. Equal volume of the compound dilutions was added to a final reaction mixture containing LANCE detection buffer (PerkinElmer CR97-100), 100 nM ULight MBP (PerkinElmer TRF0109M), 1000 μM ATP, and CDK9/Cyclin T1 (Carna Biosciences 04-110). The kinase reaction was carried out for 1 hour before addition of stopping buffer to a final of 20 mM EDTA and 0.5 nM of LANCE Ultra Europium anti-phospho-MBP antibody (PerkinElmer TRF0201M) in LANCE detection buffer. The reaction was incubated for 1 hour and the signal was read in Envision in TR-FRET mode (excitation at 320 nm and emission at 615/665 nm).

Cyclin-dependent kinase 9, sequence (P50750 whole entry): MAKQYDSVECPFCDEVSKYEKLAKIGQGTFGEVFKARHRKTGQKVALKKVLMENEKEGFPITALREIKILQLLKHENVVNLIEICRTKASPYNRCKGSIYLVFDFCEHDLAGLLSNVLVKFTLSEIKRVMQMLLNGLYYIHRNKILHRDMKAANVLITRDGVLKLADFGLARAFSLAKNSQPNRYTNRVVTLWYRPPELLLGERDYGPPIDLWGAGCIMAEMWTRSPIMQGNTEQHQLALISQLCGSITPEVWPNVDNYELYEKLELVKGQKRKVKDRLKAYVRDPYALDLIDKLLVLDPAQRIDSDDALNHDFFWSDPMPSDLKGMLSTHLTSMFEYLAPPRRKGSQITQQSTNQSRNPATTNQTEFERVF

Compound	pIC50
CN(CCO)C(=O)CN1CC=C(c2[nH]c3ncc(F)c4c3c2CN(C)c2ccc(F)cc2-4)CC1	7.00
CN1Cc2c(C3=CCN(C(=O)OC(C)(C)C)CC3)[nH]c3nccc(c23)-c2cc(F)ccc21	6.64
CNC(=O)N1CC=C(c2[nH]c3nccc4c3c2CN(C)c2ccc(F)cc2-4)CC1	7.52
CN1Cc2c(C3=CCN(S(C)(=O)=O)CC3)[nH]c3ncc(F)c(c23)-c2cc(F)ccc21	7.42
